Data on twelve compounds can be found in ChEMBL document CHEMBL3091337, “Novel piperidinylamino-diarylpyrimidine derivatives with dual structural conformations as potent HIV-1 non-nucleoside reverse transcriptase inhibitors” (Bioorg Med Chem Lett, 2013).

Where a name gives a salt, the structure may show the parent alone. Bounds are passed on as bounds.

Data set [1] is described as follows: Cytotoxicity against human MT4 cells after 5 days by MTT assay. It is filed as cell-based. (In general: Tetrazolium assays rely on reduction of a dye to a coloured formazan, in cell work by metabolically active cells.)
Data set [2] can be described thus: Selectivity index, ratio of CC50 for human MT4 cells to EC50 for HIV1 3B. It is filed as toxicity, cell-based. As to conditions: read-out: Ratio CC50/EC50.
The nature of data set [3]: Selectivity index, ratio of CC50 for human MT4 cells to EC50 for drug-resistant HIV1 RES056 harboring reverse transcriptase K103N/Y181C double mutant. It is filed as toxicity, cell-based. As to conditions: read-out: Ratio CC50/EC50.
Data set [4] has as its system Human immunodeficiency virus 1. Put plainly: Antiviral activity against HIV1 3B infected in human MT-4 cells assessed as protection against virus-induced cytopathicity after 5 days by MTT assay. It is filed as functional, organism-based. As to conditions: Human immunodeficiency virus 1, 3B, MT4, 120 h. In general terms: Damage to the host cells serves as the signal in cytopathic effect assays.

The test system of data set [5] is Human immunodeficiency virus 1. Description: Antiviral activity against drug-resistant HIV1 RES056 harboring reverse transcriptase K103N/Y181C double mutant infected in human MT-4 cells assessed as protection against virus-induced cytopathicity after 5 days by MTT assay. It is filed as functional, organism-based. As to conditions: Human immunodeficiency virus 1, RES056, MT4, 120 h.

Data set [6] concerns the target Human immunodeficiency virus type 1 reverse transcriptase (Human immunodeficiency virus 1, UniProt Q72547). Description: Inhibition of recombinant HIV1 reverse transcriptase using poly rA:dT as template/primer after 1 hr by ELISA.

By CC50 is commonly meant the concentration giving 50% cytotoxicity. Lower therefore signals greater toxicity to the cells. A word on the EC50: it is the concentration giving half of the maximal effect. Consider `Cc1cc(C)c(Nc2cc(NC3CCN(Cc4ccc(S(N)(=O)=O)cc4)CC3)nc(Nc3ccc(C#N)cc3)n2)c(C)c1`, for which the CC50 at 120 h in data set [1] was 6.4 µM. The results for the selectivity ratio in data set [2] and in data set [3] were 83 and < 1, respectively. Also, the EC50 in data set [4] was 0.077 µM; in data set [5], > 6.4 µM.

`Cc1cc(C)c(Oc2cc(NC3CCNCC3)nc(Nc3ccc(C#N)cc3)n2)c(C)c1` gave a CC50 at 120 h in data set [1] of 9.6 µM. In addition, the selectivity ratio in data set [2] was 69; in data set [3], ≤ 5. The EC50 in data set [4] was 0.14 µM; in data set [5], ≥ 1.8 µM.

For `Cc1cc(C#N)cc(C)c1Oc1cc(NC2CCNCC2)nc(Nc2ccc(C#N)cc2)n1`, it took 4.2 µM to reach half-maximal cytotoxicity in data set [1] (CC50 at 120 h). The selectivity ratio in data set [2] turned out to be 112; in data set [3], 4. The EC50 came out at 0.038 µM in data set [4] and 0.95 µM in data set [5].

Take `Cc1cc(C)c(Oc2cc(NC3CCN(Cc4ccc(S(N)(=O)=O)cc4)CC3)nc(Nc3ccc(C#N)cc3)n2)c(C)c1`: the CC50 at 120 h in data set [1] stood at 11 µM. Besides, the results for the selectivity ratio in data set [2] and in data set [3] were 61 and < 1, respectively. Further, the EC50 in data set [4] is 0.19 µM; in data set [5] it was > 28 µM.

In data set [1], `Cc1cc(C)c(Oc2cc(NC3CCN(Cc4ccc(S(C)(=O)=O)cc4)CC3)nc(Nc3ccc(C#N)cc3)n2)c(C)c1` yielded a CC50 at 120 h of 124 µM. Besides, the selectivity ratio in data set [2] was 934; in data set [3], ≤ 8. Further, the concentration giving a half-maximal response (EC50) was 0.13 µM in data set [4] and ≥ 16 µM in data set [5].

`Cc1cc(C)c(Oc2cc(NC3CCN(Cc4ccncc4)CC3)nc(Nc3ccc(C#N)cc3)n2)c(C)c1`: in data set [1], the half-maximal cytotoxic concentration (CC50) at 120 h worked out at 11 µM. The selectivity ratio was 44 in data set [2] and < 1 in data set [3]. Moreover, the EC50 is 0.24 µM in data set [4] and > 11 µM in data set [5].

Turning to `Cc1cc(C#N)cc(C)c1Oc1cc(NC2CCN(Cc3ccc(S(N)(=O)=O)cc3)CC2)nc(Nc2ccc(C#N)cc2)n1`, half-maximal cytotoxicity in data set [1] (CC50 at 120 h) was put at 12 µM. Besides, the selectivity ratio was found to be 93 in data set [2] and 3 in data set [3]. The EC50 amounted to 0.13 µM in data set [4] and 3.9 µM in data set [5].

In the case of `Cc1cc(C#N)cc(C)c1Oc1cc(NC2CCN(Cc3ccc(S(C)(=O)=O)cc3)CC2)nc(Nc2ccc(C#N)cc2)n1`, the CC50 at 120 h in data set [1] was > 206 µM. Also, the selectivity ratio is > 3550 in data set [2] and 1 in data set [3]. For the same compound, the EC50 in data set [4] is 0.058 µM; in data set [5], > 206 µM.

The IC50 is the midpoint of a concentration-inhibition curve. For the compound `Cc1cc(C#N)cc(C)c1Oc1cc(NC2CCN(Cc3ccncc3)CC2)nc(Nc2ccc(C#N)cc2)n1`, the CC50 at 120 h in data set [1] is 100 µM. The selectivity ratio was 2140 in data set [2] and 22 in data set [3]. Further, the EC50 is 0.047 µM in data set [4] and 4.6 µM in data set [5]. Also, the IC50 in data set [6] turned out to be 33 µM.

For the compound `CC(C)Nc1cccnc1N1CCN(C(=O)c2cc3cc(NS(C)(=O)=O)ccc3[nH]2)CC1` [DELAVIRDINE MESYLATE], the CC50 at 120 h in data set [1] is > 36 µM. The selectivity ratio in data set [2] was > 227; in data set [3] it was 1. Moreover, the EC50 in data set [4] was 0.13 µM; in data set [5], > 36 µM.

Consider `O=C1Nc2ccc(Cl)cc2[C@@](C#CC2CC2)(C(F)(F)F)O1` [EFAVIRENZ], for which, in data set [1], the CC50 at 120 h is > 6.3 µM. For the same compound, the EC50 in data set [4] was determined as 0.007 µM.

`Cc1ccnc2c1NC(=O)c1cccnc1N2C1CC1` [NEVIRAPINE]: in data set [1], the CC50 at 120 h is > 15 µM. The EC50 was determined as 0.17 µM in data set [4] and 2.5 µM in data set [5].
